Patent US9427439B1, “Methods and compositions for recovery from stroke” (EIP Pharma, LLC, priority 2015, dated 2016)

Assays:
[1] = tMCAO study: body weight, clinical signs, mortality; format: in vivo, rat
Experimental: Altogether 76 adult male Sprague Dawley rats, purchased from Harlan Laboratories, (Israel), and weighing 300-350 g were used for the experiment. Animals were housed at a standard temperature (20-24° C.) and in a light-controlled environment (12 hours light/12 hours dark) with ad libitum access to food and water.
(§1) Group 1M: 20 tMCAO animals treated twice-a-day with vehicle from Day 3 (day 1 being day of stroke surgery) to Day 42 (via PO gavage)
(§2) Group 2M: 22 tMCAO animals treated twice-a-day with VX-745 (1.5 mg/kg) from Day 3 (day 1 being day of stroke surgery) to Day 42 (via PO gavage)
(§3) Group 3M: 21 tMCAO animals treated twice-a-day with VX-745 (4.5 mg/kg) from Day 3 (day 1 being day of stroke surgery) to Day 42 (via PO gavage)
Animals were handled at a minimum for three days before the surgery. Baseline measures were taken before stroke was induced. Stroke surgery occurred on Day 1. On Day 2, 24 hours post-stroke surgery, Neuroscore testing was performed. Only animals reaching and exceeding Neuroscore criteria was included in the study. On Days 3-42, treatment with vehicle or VX-745 was administered twice a day for 40 days via PO (oral) gavage for all groups. Behavioral tests for all groups were conducted on weeks 4 and 6. Animals were sacrificed on Day 44 and brains were harvested.
Statistical analysis was performed when applicable by two-way ANOVA for repeated measures, followed by Bonferroni post-hoc tests for all the data presented in the results section (*p<0.05; **p<0.01; ***p<0.001).

cytokine signaling = settings: cited from earlier work
[2] = system: rat model of stroke (transient MCAO); assay: tMCAO rat stroke model: stepping test; format: in vivo; settings: Groups 2M (1.5 mg/kg) and 3M (4.5 mg/kg), PO twice a day; Week 4 up to Week 6
Experimental: as §1, §2, §3
(§4) Transient middle cerebral artery occlusion was performed according to the method described in R. Schmid-Elsaesser et al., Stroke, 29(10):2162-2170 (1998). The right Common Carotid Artery (CCA) was exposed through a midline neck incision and carefully dissected free from surrounding nerves and fascia—from its bifurcation to the base of the skull. The occipital artery branches of the ECA (External Carotid Artery) were then isolated, and these branches were dissected and coagulated. […]
Animals were tested for forelimb akinesia in a stepping test (ST). The animal was held with its hind limbs fixed in one hand and the forelimb, not to be monitored, in the other, while the unrestrained fore-paw touches the table. The number of adjusting steps were counted while the animal was moved sideways along the table surface (85 cm during approximately five seconds), in the forehand & backhand direction for both forelimbs. […]

[3] = system: rat model of stroke (transient MCAO); assay: tMCAO rat stroke model: Neuroscore (mNSS); format: in vivo; settings: Groups 2M (1.5 mg/kg) and 3M (4.5 mg/kg), PO twice a day from Day 3 to Day 42
Experimental: as §1, §2, §3
as §4, with “coagulated. The ECA was dissected further distally and coagulated along with the terminal lingual and maxillary artery branches, which was then divided. The ICA (Internal Carotid Artery) was isolated and carefully separated from the adjacent vagus nerve, and the pterygopalatine artery was ligated close to its origin with a 5-0 nylon suture (SMI, Belgium).” for “coagulated.”

[4] = system: rat model of stroke (transient MCAO); assay: tMCAO rat stroke model: forelimb placement test; format: in vivo; settings: Groups 2M (1.5 mg/kg) and 3M (4.5 mg/kg), PO twice a day; Week 4 and Week 6
Experimental: as §1, §2, §3
as §4, with “coagulated. The ECA was dissected further distally and coagulated along with the terminal lingual and maxillary artery branches, which was then divided. The ICA (Internal Carotid Artery) was isolated and carefully separated from the adjacent vagus nerve, and the pterygopalatine artery was ligated close to its origin with a 5-0 nylon suture (SMI, Belgium).” for “coagulated.”

[5] = system: rat model of stroke (transient MCAO); assay: tMCAO rat stroke model: body swing test; format: in vivo
Experimental: as §1, §2, §3, §4
The rat was held approximately one inch from the base of its tail. […] A swing was recorded whenever the rat moved its head out of the vertical axis to either side. Before attempting another swing, the rat had must return to the vertical position for the next swing to be counted. Twenty (20) total swings were counted. […] Body swing scores were expressed as a percentage of rightward over total swings. […]

IL-1β = IL-1β ELISA of brain at termination of tMCAO study; format: in vivo, rat; settings: right minus left hemisphere; Groups 2M and 3M versus 1M; n=18 per group
From the text: The brains of all animals were harvested on Day 44. Rats were sacrificed by CO2 inhalation. Brains were harvested from all animals in each group, divided to left and right hemisphere, weighed, and snap frozen.
Brains were harvested at study termination. Each brain was dissected into two hemispheres and each hemisphere was weighed and enclosed into tubes marked Left or Right. Each tube was immediately frozen in liquid nitrogen and stored at (−80)° C. The tissues were defrosted and homogenized in 1 ml/200 mg tissue of 20 mM Tris-HCL pH 7.4 containing a protease inhibitor cocktail (50 μl/ml). Samples were centrifuged at 10,000 g for 15 min at 4°. Clear supernatants were aliquoted (150 μl/aliquot) and stored at (−80)° C. until ELISA assays were performed. ELISA assay was executed according to kit instructions. Standards and samples were tested in duplicates.
Following study termination, animals were also tested for IL-1β brain levels using the ELISA system (see FIG. 8 for standard curves). The variability of the results was too large to allow definitive conclusions. All the results below the Lower Limit of Quantification (LLOQ) were assigned the LLOQ value of 5 pg/ml. Then, results for the uninjured left side were subtracted from the results of the right side. The distribution for individual rats is given in the figure below (n=18 in each of the study groups) (FIG. 9).

[6] = system: IL-1β production and signaling; settings: cited from earlier work
[7] = treatment of rheumatoid arthritis; cited from earlier work
[8] = brain distribution in pre-clinical studies; format: in vivo
From the text: The inhibition of MAPK by VX-745 blocks the downstream synthesis of inflammatory cytokines TNF-α and IL-1β. […] VX-745 preferentially distributes to the brain with drug concentrations in the brain in pre-clinical studies being approximately two-fold higher than in the blood. Stroke

[9] = system: cytokine production (TNF-α and IL-1β) in whole blood; settings: inhibition of cytokine production (anti-inflammatory activity); cited from earlier work
animal models of stroke = settings: administered 24-hours after stroke; cited from earlier work

Compound	body weight, differences between groups ([1]; all groups through the study, two-way ANOVA, Bonferroni)	rats that died after treatment initiation ([1]; group 2M (1.5 mg/kg), within two weeks of treatment initiation)	general clinical signs, differences between groups ([1]; tMCAO rats, 1.5 and 4.5 mg/kg PO twice a day)	IC50 for inhibition of cytokine signaling relative to IC50 for cytokine production (cytokine signaling)	stepping test (left forelimb), number of steps versus vehicle control group 1M [2]	neuroscore delta (change from Day 2 to Week 4 or Week 6) versus vehicle control group 1M [3]	absolute neuroscore versus vehicle control group 1M ([3]; Weeks 4 and 6)	forelimb placement test score versus vehicle control group 1M [4]	body swing test (difference between left turn and right turn) versus vehicle control group 1M ([5]; Groups 2M (1.5 mg/kg) and 3M (4.5 mg/kg), PO twice a day)	body swing test, extent of recovery ([5]; particularly in the 4.5 mg/kg dose group)	IL-1β levels in the brain at study termination, between the groups (IL-1β)	IL-1β production and signaling in vitro [6]	mean blood concentration [7]	drug concentrations in the brain versus in the blood [8]	whole blood IC50 [9] [µg/mL]	effect on recovery from neurologic deficit (animal models of stroke)
O=c1ncn2nc(Sc3ccc(F)cc3F)ccc2c1-c1c(Cl)cccc1Cl [VX-745]	No statistically significant differences	one	no observed differences	half that for cytokine production	statistically significant difference	statistically significant difference	statistically significant difference	Statistically significant differences	statistically significant difference	near normalization	No statistically significant differences	inhibits IL-1β production and signaling in vitro	approximately 75 ng/mL	approximately two-fold	0.065 to 0.08	–
C[S+]([O-])c1ccc(-c2nc(-c3ccc(F)cc3)c(-c3ccncc3)[nH]2)cc1 (stereo not shown) [SB203850]	–	–	–	–	–	–	–	–	–	–	–	–	–	–	–	no significant effect
